Test results published in ChEMBL document CHEMBL1130588, “Biaryl acids: novel non-nucleoside inhibitors of HIV reverse transcriptase types 1 and 2” (Bioorg Med Chem Lett, 1998).

What was measured:
[1] = target: T1, Human immunodeficiency virus type 1 reverse transcriptase (Human immunodeficiency virus 1, UniProt Q72547); experiment: Evaluated for inhibition of HIV-1 reverse transcriptase; Inactive means <50% inhibition at 100 ug/mL concentration
[2] = target: T1, Human immunodeficiency virus type 1 reverse transcriptase; experiment: Evaluated for inhibition of HIV-1 reverse transcriptase
[3] = target: T1, Human immunodeficiency virus type 1 reverse transcriptase; experiment: Compound was evaluated for inhibition of HIV-1 reverse transcriptase using rC.dG and [3H]dGTP as substrates at 100 ug/mL
[4] = target: T1, Human immunodeficiency virus type 1 reverse transcriptase; experiment: Compound was evaluated for inhibition of HIV-1 reverse transcriptase using rC.dG and [3H]dGTP as substrates at 100 ug/ml

Row | Compound | IC50 [2] | IC50 [1] | other results
1 | CN(CC(=O)Nc1ccc(Br)cc1C(=O)O)CC(=O)Nc1ccc(Br)cc1C(=O)O | – | Not Active | –
2 | O=C(Cc1cccc(CC(=O)Nc2ccc(Br)cc2C(=O)O)c1)Nc1ccc(Br)cc1C(=O)O | – | Not Active | –
3 | O=C(CCCCC(=O)Nc1ccccc1C(=O)O)Nc1ccccc1C(=O)O | 21 µM | – | –
4 | O=C(Nc1ccc(Br)cc1C(=O)O)c1cccc(C(=O)Nc2ccc(Br)cc2C(=O)O)n1 | – | Not Active | –
5 | O=C(Nc1ccc(Br)cc1C(=O)O)c1cncc(C(=O)Nc2ccc(Br)cc2C(=O)O)c1 | – | Not Active | –
6 | O=C(CCCCC(=O)Nc1ccc(Br)cc1)Nc1ccccc1 | – | Not Active | –
7 | O=C(CCCCC(=O)Nc1ccccc1C(=O)O)Nc1ccc(Br)cc1 | – | Not Active | –
8 | O=C(CCCCC(=O)Nc1ccccc1C(=O)O)Nc1ccccc1 | – | Not Active | –
9 | O=C(CCCCCCC(=O)Nc1ccc(Br)cc1C(=O)O)Nc1ccc(Br)cc1C(=O)O | – | – | IC50 [3]: 18 µM
10 | O=C(COCC(=O)Nc1ccc(Br)cc1C(=O)O)Nc1ccc(Br)cc1C(=O)O | – | Not Active | –
11 | CC(=O)Nc1ccc(NC(=O)CCCCC(=O)Nc2ccc(NC(C)=O)cc2C(=O)O)c(C(=O)O)c1 | – | – | IC50 [4]: > 100 µM
12 | O=C(CCCCC(=O)Nc1ccc(Br)cc1C(=O)O)Nc1ccccc1 | – | Not Active | –

Further lines, with some results ahead:

Row | IC50 [2] | Compound | IC50 [1] | other results
13 | 15 µM | O=C(CCCCC(=O)Nc1ccc(Br)cc1C(=O)O)Nc1ccc(Br)cc1 | – | –
14 | > 120 µM | O=C(CCCCC(=O)Nc1ccc(F)cc1C(=O)O)Nc1ccc(F)cc1C(=O)O | – | –
15 | 66 µM | O=C(Nc1ccc(Br)cc1C(=O)O)c1ccnc(C(=O)Nc2ccc(Br)cc2C(=O)O)c1 | – | –
16 | 8.7 µM | O=C(CCCC(=O)Nc1ccc(Cl)cc1C(=O)O)Nc1ccc(Cl)cc1C(=O)O | – | –
17 | 3.1 µM | O=C(CCCCC(=O)Nc1ccc(Br)cc1C(=O)O)Nc1ccc(Br)cc1C(=O)O | – | –
18 | 9 µM | O=C(CCCCCC(=O)Nc1ccc(Cl)cc1C(=O)O)Nc1ccc(Cl)cc1C(=O)O | – | –
19 | 10.6 µM | COc1ccc(NC(=O)CCCCC(=O)Nc2ccc(OC)cc2C(=O)O)c(C(=O)O)c1 | – | –
20 | 35 µM | O=C(Nc1ccc(Br)cc1C(=O)O)c1ccc(C(=O)Nc2ccc(Br)cc2C(=O)O)nc1 | – | –
21 | 8.7 µM | O=C(CCCCC(=O)Nc1ccc(Cl)cc1C(=O)O)Nc1ccc(Cl)cc1C(=O)O | – | –
22 | 14 µM | Cc1ccc(NC(=O)CCCCC(=O)Nc2ccc(C)cc2C(=O)O)c(C(=O)O)c1 | – | –
23 | > 100 µM | N#Cc1ccc(NC(=O)CCCCC(=O)Nc2ccc(C#N)cc2C(=O)O)c(C(=O)O)c1 | – | –
24 | 19 µM | CSc1ccc(NC(=O)CCCCC(=O)Nc2ccc(SC)cc2C(=O)O)c(C(=O)O)c1 | – | –
